Assay results as given in patent US20190038597A1, “PREVENTION OF VASCULAR AND CARDIAC FIBROSIS VIA IRE1ALPHA INHIBITION” (McMaster University, priority 2017, published 2019).

Assays:
[1] = biological target: T1, IRE1α endonuclease (Rattus norvegicus, UniProt A0A4Y1YQ52); experiment: XBP1 splicing assay in VSMCs; assay type: cell-based
T1 construct: endogenous in cells; host or cells: primary aortic vascular smooth muscle cells from 5-week old WKY rats
Method: (§1) VSMCs were treated with tunicamycin (1 μg/ml) and either 4μ8c (30 μM) or STF-083010 (60 μM) for 6 h or 24 h. (A) Agarose gel for assessment of XBP1 splicing after 6 h of treatment with tunicamycin and densitometric quantification. (B) Western blot for assessment of ER chaperone expression after 24 h tunicamycin treatment with or without inhibition of IRE1α by 4μ8c. Data is presented as mean±SEM. *, p<0.05 vs. Vehicle; #, p<0.05 vs. Tm.
(§2) VSMCs were cultured in DMEM/F12 containing 1% FBS. Confluent cells were treated with L-ascorbic acid-2-phosphate (100 μg/ml) and either TGF-β1 (5 ng/ml) or Ang II (1 μM). (A) Agarose gel for assessment of TGF-β1-induced XBP1 splicing in VSMCs after 24 h. (B) Picro-Sirius Red assay for measurement of collagen deposition induced by combined TGF-β1 and AA2P treatment after 72 h, and inhibition by 4μ8c and STF-083010. (C) Western blot for assessment of collagen chaperone expression after treatment of TGF-β1 and 4μ8c for 48 h. *, p<0.05. (D) Measurement of Ang II-induced collagen production and inhibition by 4μ8c and STF-083010 after 72 h.
VSMCs were isolated from the aortas of 5-week old WKY rats using the explant method^29. The thoracic aorta was removed from the animal and placed in ice-cold 5× Antibiotics-Antimycotics solution (ThermoFisher). The adventitia was gently removed and the aorta was cut longitudinally. The endothelial layer was removed by gentle scraping with forceps. […]
Total RNA was extracted from cultured cells and rat tissues using the TRIzol reagent (ThermoFisher) according to manufacturer's instructions. RNA concentration and purity were measured using a Nanodrop ND-1000 spectrophotometer (NanoDrop Technologies, Inc.). […]
Aortic VSMCs were isolated from normotensive WKY rats and used for in vitro experiments. […] To test the ability of these compounds to block the IRE1α endonuclease, XBP1 splicing was measured in VSMCs treated with the ER stress inducer tunicamycin for 6 h with or without pre-treatment by 4μ8c or STF-083010. […]

[2] = tested on: GRP78, GRP94 and PDI; experiment: Western blot of ER chaperone / ER stress marker expression in VSMCs; assay type: cell-based, rat
Method: as §1, §2
VSMCs were isolated from the aortas of 5-week old WKY rats using the explant method^29. The thoracic aorta was removed from the animal and placed in ice-cold 5× Antibiotics-Antimycotics solution (ThermoFisher). The adventitia was gently removed and the aorta was cut longitudinally. The endothelial layer was removed by gentle scraping with forceps. The aorta was cut into 3 mm^2 squares and placed on a 6 well plate in DMEM/F12 medium containing 10% fetal bovine serum (FBS). Explants were incubated undisturbed in a 5% CO2 incubator at 37° C. for 1 week and then passaged. […]
Cells were lysed in 1× Laemmli buffer and protein content was quantified using the BioRad DC Protein Assay (BioRad, Mississauga, Canada). […]

T1 sequence (A0A4Y1YQ52 21-977): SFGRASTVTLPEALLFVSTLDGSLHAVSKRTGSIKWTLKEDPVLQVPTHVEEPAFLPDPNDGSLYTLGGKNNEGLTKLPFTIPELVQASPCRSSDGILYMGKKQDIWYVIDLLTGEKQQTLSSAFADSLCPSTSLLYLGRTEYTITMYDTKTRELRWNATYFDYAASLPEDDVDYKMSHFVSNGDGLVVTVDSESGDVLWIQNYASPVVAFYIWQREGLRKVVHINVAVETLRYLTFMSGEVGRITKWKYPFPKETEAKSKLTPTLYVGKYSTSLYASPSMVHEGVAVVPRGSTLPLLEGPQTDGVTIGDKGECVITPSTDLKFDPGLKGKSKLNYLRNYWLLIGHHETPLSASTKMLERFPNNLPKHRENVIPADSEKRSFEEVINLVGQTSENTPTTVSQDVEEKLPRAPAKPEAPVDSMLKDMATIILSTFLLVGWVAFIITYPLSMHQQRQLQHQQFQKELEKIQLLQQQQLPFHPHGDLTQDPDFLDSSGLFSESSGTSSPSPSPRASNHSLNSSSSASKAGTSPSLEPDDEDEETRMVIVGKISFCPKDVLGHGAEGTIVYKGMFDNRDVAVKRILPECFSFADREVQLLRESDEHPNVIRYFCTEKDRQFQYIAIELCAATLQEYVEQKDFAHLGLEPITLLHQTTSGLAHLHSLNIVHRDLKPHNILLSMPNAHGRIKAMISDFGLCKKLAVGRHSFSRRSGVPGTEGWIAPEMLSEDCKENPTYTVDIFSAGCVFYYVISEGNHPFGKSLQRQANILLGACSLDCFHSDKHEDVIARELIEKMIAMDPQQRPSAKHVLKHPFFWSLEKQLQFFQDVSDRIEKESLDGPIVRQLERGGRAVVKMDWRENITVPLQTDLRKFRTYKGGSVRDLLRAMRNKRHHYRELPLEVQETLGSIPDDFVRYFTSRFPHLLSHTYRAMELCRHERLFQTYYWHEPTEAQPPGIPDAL

Cc1cc(=O)oc2c(C=O)c(O)ccc12 [4μ8c, 7-Hydroxy-4-methyl-2-oxo-2H-chromene-8-carbaldehyde]
TGF-β1 induced XBP1 splicing ([1]; TGF-β1 (5 ng/ml) 24 h, co-treatment, FIG. 2A): blocked | spliced-to-unspliced XBP1 ratio ([1]; tunicamycin (1 μg/ml) 6 h, 4μ8c 30 μM or STF-083010 60 μM, FIG. 1A): reduced | elevated expression levels of ER stress markers GRP78, GRP94 and PDI ([2]; 24 h tunicamycin treatment, FIG. 1B): reduced | TGF-β1-increased expression of collagen chaperones and ER stress markers GRP78, GRP94 and PDI ([2]; TGF-β1 48 h, FIG. 2C): lowered
